These are literature values, as cited in EP0404807B1, “DEPRENYL FOR SYSTEMIC TRANSDERMAL ADMINISTRATION” (SOMERSET PHARMACEUTICALS, INC., priority 1988, dated 1989).

For the data set the following is noted: deprenyl alone, as stated in EP 0241809 A.

For the molecule `C#CCN(C)C(C)Cc1ccccc1` (stereo not shown) [deprenyl, N-methyl-N-(1-phenyl-2-propyl)-2-propinylamine], the anti-Parkinsonism action result was “almost no anti-Parkinsonism action”.
